Experimental data as given in PubChem BioAssay (NCI).
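Method: 48-hour compound exposure of cells in 96-well plates, five concentrations, linear interpolation of endpoints. Abbreviation: GI50, concentration required for 50% inhibition of growth. TGI marks complete inhibition of growth.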

How the values were obtained:
Assay in all cases: DTP human tumour cell line panel, 48 h
MCF7 breast = test system: MCF7 breast
SF-539 CNS = test system: SF-539 CNS
OVCAR-3 ovarian = test system: OVCAR-3 ovarian
UACC-62 melanoma = test system: UACC-62 melanoma
CCRF-CEM leukemia = test system: CCRF-CEM leukemia
PC-3 prostate = test system: PC-3 prostate
TK-10 renal = test system: TK-10 renal
K-562 leukemia = test system: K-562 leukemia
KM12 colon = test system: KM12 colon
SK-MEL-28 melanoma = test system: SK-MEL-28 melanoma
NCI-H460 lung = test system: NCI-H460 lung
SNB-75 CNS = test system: SNB-75 CNS
SK-MEL-5 melanoma = test system: SK-MEL-5 melanoma
RPMI-8226 leukemia = test system: RPMI-8226 leukemia
A549 NSCLC = test system: A549 NSCLC
NCI-H23 lung = test system: NCI-H23 lung
SW-620 colon = test system: SW-620 colon
SF-295 CNS = test system: SF-295 CNS
NCI/ADR-RES ovarian = test system: NCI/ADR-RES ovarian
HOP-92 NSCLC = test system: HOP-92 NSCLC
786-0 renal = test system: 786-0 renal
MDA-MB-435 = test system: MDA-MB-435
UO-31 renal = test system: UO-31 renal
IGROV1 ovarian = test system: IGROV1 ovarian
HCT-116 colon = test system: HCT-116 colon
ACHN renal = test system: ACHN renal
EKVX NSCLC = test system: EKVX NSCLC
HCT-15 colon = test system: HCT-15 colon
HOP-62 NSCLC = test system: HOP-62 NSCLC
NCI-H522 lung = test system: NCI-H522 lung
OVCAR-8 ovarian = test system: OVCAR-8 ovarian
LOX IMVI melanoma = test system: LOX IMVI melanoma
HCC-2998 colon = test system: HCC-2998 colon
OVCAR-5 ovarian = test system: OVCAR-5 ovarian
M14 melanoma = test system: M14 melanoma
NCI-H226 lung = test system: NCI-H226 lung
HL-60(TB) leukemia = test system: HL-60(TB) leukemia
HS 578T breast = test system: HS 578T breast
MDA-MB-231 breast = test system: MDA-MB-231 breast
MALME-3M melanoma = test system: MALME-3M melanoma
HT29 colon = test system: HT29 colon
SF-268 CNS = test system: SF-268 CNS
SN12C renal = test system: SN12C renal
BT-549 breast = test system: BT-549 breast
DU-145 prostate = test system: DU-145 prostate
SR leukemia = test system: SR leukemia
MOLT-4 leukemia = test system: MOLT-4 leukemia
A498 renal = test system: A498 renal
SK-OV-3 ovarian = test system: SK-OV-3 ovarian
UACC-257 melanoma = test system: UACC-257 melanoma
RXF 393 renal = test system: RXF 393 renal
COLO 205 colon = test system: COLO 205 colon
OVCAR-4 ovarian = test system: OVCAR-4 ovarian
T-47D breast = test system: T-47D breast

With `O=C(/C=C/c1ccc(C(F)(F)F)cc1)c1ccc(Nc2nc(NCCO)nc(NCCO)n2)cc1` the GI50 (MCF7 breast) was 1.66 µM, the TGI (MCF7 breast) was 5.16 µM and the GI50 (SF-539 CNS) was 1.68 µM. The TGI (SF-539 CNS) was 3.38 µM, the GI50 (OVCAR-3 ovarian) was 2.02 µM and the TGI (OVCAR-3 ovarian) was 4.19 µM. It also gave a GI50 (UACC-62 melanoma) of 2.13 µM, a TGI (UACC-62 melanoma) of 6.03 µM and a GI50 (CCRF-CEM leukemia) of 3.24 µM. The TGI (CCRF-CEM leukemia) was 10.7 µM, the GI50 (PC-3 prostate) was 3.29 µM and the TGI (PC-3 prostate) was 13.1 µM. The GI50 (TK-10 renal) was 2.93 µM, the TGI (TK-10 renal) was 14.5 µM and the GI50 (K-562 leukemia) was 2.84 µM. For the same compound, the TGI (K-562 leukemia) was 8.89 µM, the GI50 (KM12 colon) was 2.02 µM and the TGI (KM12 colon) was 4.17 µM. The GI50 (SK-MEL-28 melanoma) was 3.45 µM, the TGI (SK-MEL-28 melanoma) was 13 µM and the GI50 (NCI-H460 lung) was 3.23 µM. The TGI (NCI-H460 lung) was 10.6 µM, the GI50 (SNB-75 CNS) was 2.31 µM and the TGI (SNB-75 CNS) was 13.6 µM. For the same compound, the GI50 (SK-MEL-5 melanoma) was 3.12 µM, the TGI (SK-MEL-5 melanoma) was 10.5 µM and the GI50 (RPMI-8226 leukemia) was 2.12 µM. It also gave a TGI (RPMI-8226 leukemia) of 5.23 µM, a GI50 (A549 NSCLC) of 2.91 µM and a TGI (A549 NSCLC) of 10.8 µM. It also gave a GI50 (NCI-H23 lung) of 3.85 µM, a TGI (NCI-H23 lung) of 17.4 µM and a GI50 (SW-620 colon) of 1.97 µM. The TGI (SW-620 colon) was 4.25 µM, the GI50 (SF-295 CNS) was 3.2 µM and the TGI (SF-295 CNS) was 13 µM. It also gave a GI50 (NCI/ADR-RES ovarian) of 15.2 µM, a TGI (NCI/ADR-RES ovarian) of 35 µM and a GI50 (HOP-92 NSCLC) of 5.28 µM. For the same compound, the TGI (HOP-92 NSCLC) was 25 µM, the GI50 (786-0 renal) was 3.12 µM and the TGI (786-0 renal) was 10.9 µM. It also gave a GI50 (MDA-MB-435) of 3.82 µM, a TGI (MDA-MB-435) of 14.2 µM and a GI50 (UO-31 renal) of 1.54 µM. The TGI (UO-31 renal) was 4.33 µM, the GI50 (IGROV1 ovarian) was 3 µM and the TGI (IGROV1 ovarian) was 9.51 µM. For the same compound, the GI50 (HCT-116 colon) was 1.79 µM, the TGI (HCT-116 colon) was 3.9 µM and the GI50 (ACHN renal) was 4.38 µM. The TGI (ACHN renal) was 15.6 µM, the GI50 (EKVX NSCLC) was 3.49 µM and the TGI (EKVX NSCLC) was 16.8 µM. For the same compound, the GI50 (HCT-15 colon) was 3.07 µM, the TGI (HCT-15 colon) was 11.3 µM and the GI50 (HOP-62 NSCLC) was 2.42 µM. It also gave a TGI (HOP-62 NSCLC) of 7.99 µM, a GI50 (NCI-H522 lung) of 2.15 µM and a TGI (NCI-H522 lung) of 6.66 µM. It also gave a GI50 (OVCAR-8 ovarian) of 3.31 µM, a TGI (OVCAR-8 ovarian) of 20.2 µM and a GI50 (LOX IMVI melanoma) of 1.56 µM. The TGI (LOX IMVI melanoma) was 3 µM, the GI50 (HCC-2998 colon) was 3.25 µM and the TGI (HCC-2998 colon) was 11.2 µM. For the same compound, the GI50 (OVCAR-5 ovarian) was 2.85 µM, the TGI (OVCAR-5 ovarian) was 14.1 µM and the GI50 (M14 melanoma) was 3.96 µM. It also gave a TGI (M14 melanoma) of 17.1 µM, a GI50 (NCI-H226 lung) of 2.62 µM and a TGI (NCI-H226 lung) of 9.65 µM. It also gave a GI50 (HL-60(TB) leukemia) of 2.97 µM, a TGI (HL-60(TB) leukemia) of 10.3 µM and a GI50 (HS 578T breast) of 5.44 µM. The TGI (HS 578T breast) was 54 µM, the GI50 (MDA-MB-231 breast) was 3.29 µM and the TGI (MDA-MB-231 breast) was 13.8 µM. For the same compound, the GI50 (MALME-3M melanoma) was 4.95 µM, the TGI (MALME-3M melanoma) was 18.8 µM and the GI50 (HT29 colon) was 2.5 µM. For the same compound, the TGI (HT29 colon) was 6.91 µM, the GI50 (SF-268 CNS) was 2.8 µM and the TGI (SF-268 CNS) was 11.5 µM. The GI50 (SN12C renal) was 2.71 µM, the TGI (SN12C renal) was 9.7 µM and the GI50 (BT-549 breast) was 2.53 µM. For the same compound, the TGI (BT-549 breast) was 8 µM, the GI50 (DU-145 prostate) was 4.03 µM and the TGI (DU-145 prostate) was 14.3 µM. For the same compound, the GI50 (SR leukemia) was 2.3 µM, the TGI (SR leukemia) was 7.11 µM and the GI50 (MOLT-4 leukemia) was 2.68 µM. For the same compound, the TGI (MOLT-4 leukemia) was 10.7 µM, the GI50 (A498 renal) was 8.85 µM and the TGI (A498 renal) was 21.2 µM. The GI50 (SK-OV-3 ovarian) was 4 µM, the TGI (SK-OV-3 ovarian) was 15.1 µM and the GI50 (UACC-257 melanoma) was 10.3 µM. It also gave a TGI (UACC-257 melanoma) of 23.4 µM, a GI50 (RXF 393 renal) of 1.6 µM and a TGI (RXF 393 renal) of 3.44 µM. It also gave a GI50 (COLO 205 colon) of 2.05 µM, a TGI (COLO 205 colon) of 4.22 µM and a GI50 (OVCAR-4 ovarian) of 4.29 µM. The TGI (OVCAR-4 ovarian) was 20.8 µM, the GI50 (T-47D breast) was 2.51 µM and the TGI (T-47D breast) was 11.8 µM.
